One assay relates to Human B Lymphocyte. In words: Human B lymphocyte assay. The assay is classed as cell-based.
Another assay deals with PI3Kα (Homo sapiens (Human), UniProt P42336). The assay can be described thus: Biochemical assay of PI3K selectivity (PI3Kα). Conditions: ratio of IC50 for PI3Kα relative to PI3Kδ. From the text:
(§1) Recombinant PI3K heterodimeric complexes consisting of a p110 catalytic subunit and a p85 regulatory subunit were overexpressed using the BAC-TO-BAC® HT baculovirus expression system (GIBCO/BRL), and then purified for use in biochemical assays. The four Class I PI 3-kinases were cloned into baculovirus vectors as follows:
p110α: Similar to the method used for p110δ, described above, a FLAG®-tagged version of p110α (see Volinia et al., Genomics, 24(3):427-77 (1994)) was subcloned in BamH1-HindIII sites of pFastbac HTb (Life Technologies) such that the clone was in frame with the His tag of the vector.
(§2) Biochemical Assay using 20 μM ATP
(§3) Using the method described in Example 2, compounds of the invention were tested for inhibitory activity and potency against PI3Kδ, and for selectivity for PI3Kδ versus other Class I PI3K isozymes. In Table 1, IC50 values (μM) are given for PI3Kδ (“Delta”), and may be calculated for the other isoforms using the ratios of IC50 values discussed below. To illustrate selectivity of the compounds, the ratios of the IC50 values of the compounds for PI3Kα, PI3Kβ, and PI3Kγ relative to PI3Kδ are given, respectively, as “Alpha/Delta Ratio,” “Beta/Delta Ratio,” and “Gamma/Delta Ratio.”
(§4) The initial selectivity assays were performed identically to the selectivity assay protocol in Example 2, except using 100 μL Ecoscint for radiolabel detection.
(§5) Subsequent selectivity assays were done similarly using the same 3× substrate stocks except they contained 0.05 mCi/mL γ[^32P]ATP and 3 mM PIP2. Subsequent selectivity assays also used the same 3× enzyme stocks, except they now contained 3 nM of any given PI3K isoform.
(§6) For all selectivity assays, the test compounds were weighed out and dissolved into 10-50 mM stocks in 100% DMSO (depending on their respective solubilities) and stored at −20° C. Compounds were thawed (to room temperature or 37° C.), diluted to 300 μM in water from which a 3-fold dilution series into water was done. From these dilutions, 20 μL was added into the assay wells alongside water blanks used for the enzyme (positive) control and the no enzyme (background) control. The remainder of the assay was performed essentially according to the selectivity assay protocol in Example 2.

For another assay, the target named is PI3Kβ (Homo sapiens (Human), UniProt P42338). The assay can be described thus: Biochemical assay of PI3K selectivity (PI3Kβ). The note with it: ratio of IC50 for PI3Kβ relative to PI3Kδ.
Source text: as §1
p110β: A p110β (see Hu et al., Mol. Cell. Biol., 13:7677-88 (1993)) clone was amplified from the human MARATHON® Ready spleen cDNA library (Clontech, Palo Alto Calif.) according to the manufacturer's protocol using the following primers: […]
as §2, §3, §4, §5, §6

A further assay has as its target PI3Kδ (Homo sapiens (Human), UniProt O00329). The assay can be described thus: Biochemical assay of PI3K potency using 20 μM ATP (PI3Kδ). Conditions: read-out: Delta IC50.
Source text: as §1
p110δ: A FLAG®-tagged version of human p110δ (SEQ ID NOS: 1 and 2) (see Chantry et al., J. Biol. Chem., 272:19236-41 (1997)) was subcloned using standard recombinant DNA techniques into the BamH1-Xba1 site of the insect cell expression vector pFastbac HTb (Life Technologies, Gaithersburg, Md.), such that the clone was in frame with the His tag of the vector. The FLAG® system is described in U.S. Pat. Nos. 4,703,004; 4,782,137; 4,851,341; and 5,011,912, and reagents are available from Eastman Kodak Co.
as §2
Using the method described in Example 2, compounds of the invention were tested for inhibitory activity and potency against PI3Kδ, and for selectivity for PI3Kδ versus other Class I PI3K isozymes.
as §4, §5, §6

For another assay, the system named is human neutrophils (PMN). In words: Neutrophil (PMN) elastase release (fMLP-induced elastase exocytosis). The assay is classed as cell-based. The procedure: Aliquots (8 mL) of heparinized blood from healthy volunteers are layered on 3 mL cushions of 7.3% FICOLL® (Sigma, St. Louis, Mo.) and 15.4% HYPAQUE® (Sigma) and centrifuged at 900 rpm for 30 min at room temperature in a table top centrifuge (Beckman). The neutrophil-rich band just above the FICOLL®-HYPAQUE® cushion is collected and washed with Hanks' balanced salt solution (HESS) containing 0.1% gelatin. Residual erythrocytes are removed by, hypotonic lysis with 0.2% NaCl. The neutrophil preparation is washed twice with HESS containing 0.1% gelatin and used immediately.
In addition to superoxide generation, activated neutrophils also respond by releasing several proteases that are responsible for the destruction of tissues and cartilage during inflammation. As an indication of protease release, the effect of present compound on elastase exocytosis is measured. Elastase exocytosis is quantitated by modification of the procedure described by Ossanna et al. (J. Clin. Invest., 77:1939-51 (1986)), as follows. Purified human neutrophils (0.2×10^6) (treated with either DMSO or a serial dilution of a present compound in DMSO) are stimulated with fMLP in PBS containing 0.01 mg/mL cytochalasin B, 1.0 μM sodium azide (NaN3), 5 μg/mL L-methionine and 1 μM fMLP for 90 min at 37° C. in a 96-well plate. At the end of the incubation period, the plate is centrifuged for 5 min at 1000 rpm, and 90 μL of the supernatant is transferred to 10 μL of 10 mM solution of an elastase substrate peptide, MeO-suc-Ala-Ala-Pro-Val-pNA, wherein MeO-suc=methoxy-succinyl; pNA=p-nitroanilide (Calbiochem, San Diego, Calif.). Absorbance at 410 nm is monitored for 2 hr in a 96-well plate reader. To measure the relative amounts of elastase excytosed, all absorbance values are normalized to the values without any inhibitor.
Using the methods described in Example 2, compounds of the invention were tested for inhibitory activity and potency in an assay of neutrophil (PMN) elastase release. In Table 1, the values shown are effective concentrations of the compound (EC50; μM).

The target in a further assay is PI3Kγ (Homo sapiens (Human), UniProt P48736). The assay can be described thus: Biochemical assay of PI3K selectivity (PI3Kγ). The note with it: ratio of IC50 for PI3Kγ relative to PI3Kδ.
Source text: p110γ: The p110γ cDNA (see Stoyanov et al., Science, 269:690-93 (1995)) was amplified from a human Marathon Ready spleen cDNA library (Clontech) according to the manufacturer's protocol using the following primers: […]
Recombinant baculoviruses containing the above clones were generated using manufacturer's recommended protocol (Life Technologies). Baculoviruses expressing His-tagged p110α, p110β, or p110δ catalytic subunit and p85 subunit were coinfected into Sf21 insect cells. To enrich the heterodimeric enzyme complex, an excess amount of baculovirus expressing p85 subunit was infected, and the His-tagged p110 catalytic subunit complexed with p85 was purified on nickel affinity column. […] In an alternate approach, p101 can be cloned into baculovirus, to permit coexpression with its preferred binding partner p110γ.
as §2, §3, §4, §5, §6

For another assay, the system named is basophils. In words: Basophil histamine release assay. The assay is classed as cell-based. The note with it: highest concentration, 10,000 nM. As for the experimental part:
Assessment of the effect of a compound of the invention on basophil function is tested using a conventional histamine release assay, generally in accordance with the method described in Miura et al., J. Immunol., 162:4198-206 (1999). Briefly, enriched basophils are preincubated with test compounds at several concentrations from 0.1 nM to 1,000 nM for 10 min at 37° C. Then, polyclonal goat antihuman IgE (0.1 μg/mL) or fMLP is added, and allowed to incubate for an additional 30 min. Histamine released into the supernatant is measured using an automated fluorometric technique.

SMILES strings stand for the structures.

PI3Kδ, sequence (O00329 whole entry S253N): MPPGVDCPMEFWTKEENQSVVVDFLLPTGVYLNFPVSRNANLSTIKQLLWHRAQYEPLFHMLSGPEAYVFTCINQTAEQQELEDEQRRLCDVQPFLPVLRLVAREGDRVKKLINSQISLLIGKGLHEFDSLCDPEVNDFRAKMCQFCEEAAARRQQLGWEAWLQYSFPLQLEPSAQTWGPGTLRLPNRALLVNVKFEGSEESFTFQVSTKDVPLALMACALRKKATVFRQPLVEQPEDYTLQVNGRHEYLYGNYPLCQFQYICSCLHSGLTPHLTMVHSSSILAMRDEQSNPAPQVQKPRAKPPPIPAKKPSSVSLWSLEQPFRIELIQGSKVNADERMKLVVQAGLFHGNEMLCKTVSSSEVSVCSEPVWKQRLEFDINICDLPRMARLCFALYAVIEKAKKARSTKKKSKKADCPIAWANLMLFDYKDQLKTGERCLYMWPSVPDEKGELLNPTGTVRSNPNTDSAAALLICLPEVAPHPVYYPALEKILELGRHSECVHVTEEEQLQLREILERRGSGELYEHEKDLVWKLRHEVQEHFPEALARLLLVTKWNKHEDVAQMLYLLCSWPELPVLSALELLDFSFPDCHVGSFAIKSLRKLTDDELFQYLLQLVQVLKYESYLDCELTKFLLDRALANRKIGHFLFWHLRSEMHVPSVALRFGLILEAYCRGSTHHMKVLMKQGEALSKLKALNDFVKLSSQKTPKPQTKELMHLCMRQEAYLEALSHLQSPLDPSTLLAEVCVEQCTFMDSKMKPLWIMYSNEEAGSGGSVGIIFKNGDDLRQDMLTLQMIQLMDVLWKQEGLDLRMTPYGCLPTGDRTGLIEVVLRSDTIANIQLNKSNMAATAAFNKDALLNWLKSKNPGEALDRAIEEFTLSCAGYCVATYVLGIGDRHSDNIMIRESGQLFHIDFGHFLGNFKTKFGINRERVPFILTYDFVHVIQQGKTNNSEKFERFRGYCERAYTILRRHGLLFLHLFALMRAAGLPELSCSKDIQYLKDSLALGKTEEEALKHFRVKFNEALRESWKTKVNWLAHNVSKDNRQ
PI3Kδ, sequence (P27986 whole entry partner): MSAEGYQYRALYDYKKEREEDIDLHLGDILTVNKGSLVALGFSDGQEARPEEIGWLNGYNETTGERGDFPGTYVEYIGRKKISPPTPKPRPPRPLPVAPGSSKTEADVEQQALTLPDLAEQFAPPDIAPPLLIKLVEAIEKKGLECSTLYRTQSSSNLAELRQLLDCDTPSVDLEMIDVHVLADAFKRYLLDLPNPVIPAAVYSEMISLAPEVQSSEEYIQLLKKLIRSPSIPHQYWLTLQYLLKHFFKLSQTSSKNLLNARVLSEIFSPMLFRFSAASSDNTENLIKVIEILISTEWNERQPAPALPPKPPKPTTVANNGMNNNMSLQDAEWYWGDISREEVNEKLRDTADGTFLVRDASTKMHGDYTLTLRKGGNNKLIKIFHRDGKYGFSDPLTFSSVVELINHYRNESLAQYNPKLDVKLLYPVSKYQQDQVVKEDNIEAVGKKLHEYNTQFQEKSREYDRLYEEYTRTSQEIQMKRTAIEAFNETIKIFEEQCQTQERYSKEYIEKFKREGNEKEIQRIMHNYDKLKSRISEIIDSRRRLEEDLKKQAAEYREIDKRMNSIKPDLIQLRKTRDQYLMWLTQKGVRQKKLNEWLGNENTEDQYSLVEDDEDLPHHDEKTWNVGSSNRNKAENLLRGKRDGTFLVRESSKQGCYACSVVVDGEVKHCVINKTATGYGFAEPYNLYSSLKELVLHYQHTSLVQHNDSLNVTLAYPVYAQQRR
PI3Kβ, sequence (P42338 2-1070): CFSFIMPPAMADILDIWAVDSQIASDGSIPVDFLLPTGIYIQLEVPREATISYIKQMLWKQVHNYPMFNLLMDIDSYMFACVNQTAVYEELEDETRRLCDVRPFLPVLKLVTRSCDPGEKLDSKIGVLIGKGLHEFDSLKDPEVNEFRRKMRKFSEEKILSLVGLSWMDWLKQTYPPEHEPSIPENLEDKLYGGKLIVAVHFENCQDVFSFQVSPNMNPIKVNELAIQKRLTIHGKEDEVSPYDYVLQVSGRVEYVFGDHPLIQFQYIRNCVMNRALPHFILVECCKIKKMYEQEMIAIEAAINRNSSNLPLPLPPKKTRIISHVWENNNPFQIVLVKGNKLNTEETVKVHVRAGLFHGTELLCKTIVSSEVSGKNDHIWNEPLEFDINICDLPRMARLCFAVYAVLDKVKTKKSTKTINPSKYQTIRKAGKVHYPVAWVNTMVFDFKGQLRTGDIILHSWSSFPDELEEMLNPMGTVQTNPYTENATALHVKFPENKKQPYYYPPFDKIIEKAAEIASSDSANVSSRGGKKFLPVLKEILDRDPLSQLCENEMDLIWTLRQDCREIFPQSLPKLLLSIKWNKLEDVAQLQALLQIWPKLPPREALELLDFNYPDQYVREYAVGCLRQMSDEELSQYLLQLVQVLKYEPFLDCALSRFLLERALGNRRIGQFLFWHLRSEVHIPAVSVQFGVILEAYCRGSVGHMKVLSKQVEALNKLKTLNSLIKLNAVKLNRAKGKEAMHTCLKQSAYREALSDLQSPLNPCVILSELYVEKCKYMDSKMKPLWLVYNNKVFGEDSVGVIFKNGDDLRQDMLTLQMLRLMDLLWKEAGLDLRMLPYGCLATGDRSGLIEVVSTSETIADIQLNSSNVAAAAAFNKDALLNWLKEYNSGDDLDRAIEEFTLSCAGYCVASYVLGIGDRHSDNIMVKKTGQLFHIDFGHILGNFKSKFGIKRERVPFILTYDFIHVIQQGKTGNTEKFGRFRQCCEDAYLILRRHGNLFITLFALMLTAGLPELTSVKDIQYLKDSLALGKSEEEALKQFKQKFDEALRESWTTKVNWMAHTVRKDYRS
PI3Kβ, sequence (P27986 whole entry partner): as the sequence (P27986 whole entry partner) above
PI3Kγ, sequence (P48736 whole entry): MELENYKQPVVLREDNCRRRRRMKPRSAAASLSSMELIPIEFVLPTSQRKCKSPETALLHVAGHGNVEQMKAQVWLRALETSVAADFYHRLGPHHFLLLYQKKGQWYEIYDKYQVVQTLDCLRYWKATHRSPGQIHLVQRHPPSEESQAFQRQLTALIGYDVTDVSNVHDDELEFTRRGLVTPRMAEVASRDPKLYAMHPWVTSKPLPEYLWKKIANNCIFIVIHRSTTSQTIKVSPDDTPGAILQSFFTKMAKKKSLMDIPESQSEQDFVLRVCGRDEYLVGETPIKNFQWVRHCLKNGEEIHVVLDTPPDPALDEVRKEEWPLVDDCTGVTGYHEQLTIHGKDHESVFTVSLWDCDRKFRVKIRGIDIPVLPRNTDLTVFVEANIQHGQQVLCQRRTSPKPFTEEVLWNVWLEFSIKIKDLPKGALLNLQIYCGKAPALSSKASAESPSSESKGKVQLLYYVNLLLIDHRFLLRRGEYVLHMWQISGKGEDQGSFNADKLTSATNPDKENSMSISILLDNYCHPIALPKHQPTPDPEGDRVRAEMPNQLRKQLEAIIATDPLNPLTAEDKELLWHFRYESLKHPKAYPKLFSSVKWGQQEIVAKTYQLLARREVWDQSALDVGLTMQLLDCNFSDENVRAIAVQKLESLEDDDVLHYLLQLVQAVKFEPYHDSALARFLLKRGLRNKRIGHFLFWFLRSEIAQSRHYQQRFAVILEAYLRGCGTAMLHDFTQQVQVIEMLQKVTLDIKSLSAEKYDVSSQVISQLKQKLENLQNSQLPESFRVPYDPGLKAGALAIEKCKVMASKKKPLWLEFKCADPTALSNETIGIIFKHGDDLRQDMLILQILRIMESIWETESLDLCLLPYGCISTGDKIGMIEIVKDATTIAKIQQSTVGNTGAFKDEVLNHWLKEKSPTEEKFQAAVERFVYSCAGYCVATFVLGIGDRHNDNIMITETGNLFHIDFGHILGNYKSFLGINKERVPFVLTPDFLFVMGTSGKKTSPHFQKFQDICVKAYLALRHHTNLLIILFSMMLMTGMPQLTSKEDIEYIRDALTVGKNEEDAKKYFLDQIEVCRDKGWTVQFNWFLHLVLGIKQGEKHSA
PI3Kα, sequence (P42336 whole entry): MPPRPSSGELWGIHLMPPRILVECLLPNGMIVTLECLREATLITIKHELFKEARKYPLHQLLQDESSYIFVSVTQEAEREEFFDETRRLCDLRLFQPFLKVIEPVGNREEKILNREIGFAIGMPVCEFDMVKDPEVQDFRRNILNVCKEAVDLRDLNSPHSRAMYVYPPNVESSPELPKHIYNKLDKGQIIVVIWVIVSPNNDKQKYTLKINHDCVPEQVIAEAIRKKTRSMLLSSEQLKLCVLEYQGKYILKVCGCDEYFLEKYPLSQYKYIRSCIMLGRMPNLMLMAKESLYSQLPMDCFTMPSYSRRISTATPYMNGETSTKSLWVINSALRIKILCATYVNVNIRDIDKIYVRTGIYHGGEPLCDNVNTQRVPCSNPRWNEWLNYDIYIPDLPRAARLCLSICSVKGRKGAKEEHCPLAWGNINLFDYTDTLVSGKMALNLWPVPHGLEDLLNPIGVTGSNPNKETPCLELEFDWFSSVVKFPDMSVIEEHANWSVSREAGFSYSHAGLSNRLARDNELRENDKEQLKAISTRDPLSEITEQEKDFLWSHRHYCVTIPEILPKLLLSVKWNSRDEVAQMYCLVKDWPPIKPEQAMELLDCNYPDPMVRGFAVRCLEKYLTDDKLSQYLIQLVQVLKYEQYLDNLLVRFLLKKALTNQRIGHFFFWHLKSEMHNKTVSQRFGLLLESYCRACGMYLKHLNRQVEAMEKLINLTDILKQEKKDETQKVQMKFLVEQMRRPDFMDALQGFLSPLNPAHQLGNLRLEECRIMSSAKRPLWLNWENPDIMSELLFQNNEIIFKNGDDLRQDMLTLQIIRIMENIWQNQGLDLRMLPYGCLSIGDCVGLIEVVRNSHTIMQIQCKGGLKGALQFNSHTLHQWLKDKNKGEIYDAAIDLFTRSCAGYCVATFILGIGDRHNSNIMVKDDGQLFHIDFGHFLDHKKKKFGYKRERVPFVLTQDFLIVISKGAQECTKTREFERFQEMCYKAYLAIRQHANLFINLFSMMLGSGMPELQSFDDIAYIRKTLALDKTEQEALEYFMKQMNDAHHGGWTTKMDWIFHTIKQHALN
PI3Kα, sequence (P27986 whole entry partner): as the sequence (P27986 whole entry partner) above
Protocol for Human B Lymphocyte: Heparinized blood (200 mL) from healthy volunteers is mixed with an equal volume of D-PBS, layered on 10×10 mL FICOLL-PAQUE® (Pharmacia), and centrifuged at 1600 rpm for 30 min at room temperature. Peripheral blood mononuclear cells (PBMC) are collected from the FICOLL®/serum interface, overlayed on 10 mL fetal bovine serum (FBS) and centrifuged at 800 rpm for 10 min to remove platelets. After washing, cells are incubated with DYNAL® Antibody Mix (B cell kit) (Dynal Corp., Lake Success, N.Y.) for 20 min at 4-8° C. Following the removal of unbound antibody, PBL are mixed with anti-mouse IgG coated magnetic beads (Dynal) for 20 min at 4-8° C. with gentle shaking followed by elimination of labeled non-B cells on the magnetic bead separator. This procedure is repeated once more. The B cells are resuspended in RPMI-1640 with 10% FBS, and kept on ice until further use.
To study antibody production, B cells are aliquoted at 50−75×10^3 cells/well into 96-well plate with or without inhibitor, to which IL-2 (100 U/mL) and PANSORBIN® (Calbiochem) Staphylococcus aureus cells (1:90,000) were added. Part of the media is removed after 24-36 hr, and fresh media (with or without inhibitor) and IL-2 is added. Cultures are incubated at 37° C., in the presence of a CO2 incubator for additional 7 days. Samples from each condition (in triplicate) are removed, and analyzed for IgG and IgM, as measured by ELISA. Briefly, IMMULON® 4 96-well plates are coated (50 μL/well) with either 150 ng/mL donkey antihuman IgG (H+L) (Jackson ImmunoResearch, West Grove Pa.), or 2 μg/mL donkey antihuman IgG+IgM (H+L) (Jackson ImmunoResearch) in bicarbonate buffer, and left overnight at 4° C. After washing three times with phosphate buffered saline containing 0.1% TWEEN®-80 (PBST) (350 μL/well), and blocking with 3% goat serum in PEST (100 μL/well) for 1 hr at room temperature, samples (100 μL/well) of B cell spent media diluted in PBST are added. […] Color development is stopped by H2SOa solution, and plates were read on an ELISA plate reader.

The EC50 is the concentration needed to bring the measured effect to its halfway point. A low value points to greater potency. As for `CCC(Nc1ncnc2[nH]cnc12)c1nc2cccc(Cl)c2c(=O)n1-c1c(F)cccc1F` (stereo not drawn) [Compound 174, 5-chloro-3-(2,6-difluoro-phenyl)-2-[1-(9H-purin-6-ylamino)-propyl]-3H-quinazolin-4-one], the EC50 amounted to 0.0307 µM with Human B Lymphocyte and 0.298 µM in the assay on human neutrophils (PMN). The “Alpha-Delta Ratio” value at PI3Kα was determined as 250. Moreover, at PI3Kβ, the “Beta-Delta Ratio” value amounted to 72. On PI3Kδ, the IC50 was 0.045 µM. In addition, on PI3Kγ, the “Gamma-Delta Ratio” value was 38.

As for `CC[C@H](Nc1ncnc2[nH]cnc12)c1nc2cccc(Cl)c2c(=O)n1-c1cc(F)cc(F)c1` [Compound 117, (S)-5-chloro-3-(3,5-difluoro-phenyl)-2-[1-(9H-purin-6-ylamino)-propyl]-3H-quinazolin-4-one], the EC50 in the assay with Human B Lymphocyte came out at 0.0016 µM; with human neutrophils (PMN), 0.382 µM. The “Alpha-Delta Ratio” value at PI3Kα is listed as 662. On PI3Kβ, the “Beta-Delta Ratio” value is listed as 78. In addition, the IC50 at PI3Kδ stood at 0.012 µM. In addition, the “Gamma-Delta Ratio” value on PI3Kγ was 67.

For `CCC(Nc1ncnc2[nH]cnc12)c1nc2cccc(C)c2c(=O)n1-c1cc(F)cc(F)c1` (stereo not drawn) [Compound 93, 3-(3,5-difluoro-phenyl)-5-methyl-2-[1-(9H-purin-6-ylamino)-propyl]-3H-quinazolin-4-one], the “Alpha-Delta Ratio” value at PI3Kα turned out to be 721. Moreover, the “Beta-Delta Ratio” value on PI3Kβ is reported as 94. Further, the IC50 on PI3Kδ worked out at 0.026 µM. For the same molecule, the EC50 with human neutrophils (PMN) came to 0.584 µM. The “Gamma-Delta Ratio” value at PI3Kγ came to 62.

Usually inhibition stands for the drop in the measured response relative to a control, in per cent. High values mean a strong effect, low ones a weak effect. In the assay with basophils, `O=c1cc(N2CCOCC2)oc2c(-c3ccccc3)cccc12` [LY294002] had an inhibition at 10 µM of around 100%.

In the case of `CCC(Nc1ncnc2[nH]cnc12)c1nc2ccccc2c(=O)n1-c1ccccc1` (stereo not drawn) [Compound 98, 3-phenyl-2-[1-(9H-purin-6-ylamino)-propyl]-3H-quinazolin-4-one], the EC50 in the assay with Human B Lymphocyte came out at 0.0046 µM; with human neutrophils (PMN), 0.084 µM. The “Alpha-Delta Ratio” value at PI3Kα was 608. For the same molecule, the “Beta-Delta Ratio” value at PI3Kβ amounted to 74. The IC50 on PI3Kδ is 0.016 µM. The “Gamma-Delta Ratio” value on PI3Kγ came out at 66.

(Values after patent US8586597B2, “6-fluoro-3-phenyl-2-[1-(9H-purin-6-ylamino)ethyl]-3H-quinazolin-4-one as an inhibitor of human phosphatidylinositol 3-kinase delta” (ICOS Corporation, priority 2004, dated 2013).)
